Results on 9 compounds are retold here after ChEMBL document CHEMBL5126639, “Semisynthesis and Evaluation of Anti-Inflammatory Activity of the Cassane-Type Diterpenoid Taepeenin F and of Some Synthetic Intermediates” (J Nat Prod, 2022).

Activity calls are given as the source filed them. The calls are words filed in the database; no cut-off is given here.

In assay [1] the test system is RAW264.7. Nature of the assay: Anti-inflammatory activity against mouse RAW264.7 cells assessed as inhibition of LPS-induced NO production at 0.25 times of IC50 concentration after 24 to 72 hrs by griess reagent assay relative to control. The assay is classed as functional, cell-based. Particulars: time 24-72 hrs. Background: Nitrite, measured by Griess reagent, commonly stands in for NO production.

Assay [2] concerns B16-F10. The assay is described as follows: Induction apoptosis in mouse B16-F10 cells assessed as increase in apoptotic cells at IC50 to IC80 concentration after 48 to 72 hrs by AnnexinV/propidium iodide staining based flow cytometric analysis. The assay is classed as functional, cell-based. Particulars: time 48-72 hrs, DDE = dose-dependent effect. Background: In flow cytometry, cells or beads pass a laser one at a time.

In assay [3] the test system is RAW264.7. The assay is described as follows: Inhibition of LPS-induced cell differentiation in mouse RAW264.7 cells at 0.25 to 0.75 IC50 concentration after 72 hrs by propidium iodide staining based flow cytometric analysis. To be noted: DDE = dose-dependent effect. The assay is classed as functional.
Assay [4] has as its system B16-F10. The assay is described as follows: Induction apoptosis in mouse B16-F10 cells assessed as viable cells at IC80 concentration after 72 hrs by AnnexinV/propidium iodide staining based flow cytometric analysis (reference value: 87.8%). The format is functional.
For assay [5], the system named is B16-F10. Nature of the assay: Induction apoptosis in mouse B16-F10 cells assessed as necrotic cells at IC80 concentration after 48 hrs by AnnexinV/propidium iodide staining based flow cytometric analysis (reference value: 8.2%). The assay is classed as functional.
Assay [6] is described as follows: Inhibition of LPS-induced cell cycle arrest in mouse RAW264.7 cells assessed as cell accumulation at S phase at 0.25 to 0.75 IC50 concentration after 72 hrs by propidium iodide staining based flow cytometric analysis relative to control. The assay is classed as functional. Further details: scale not given: the % may be the effect or the level left.
Assay [7] concerns B16-F10. The assay is described as follows: Induction of cell cycle arrest in mouse B16-F10 cells assessed as cells accumulation at G2/M phase at IC50 concentration after 72 hrs by propidium iodide staining based flow cytometric analysis (reference value: 3.16%). The assay is classed as functional.
A short description of assay [8]: Inhibition of LPS-induced cell cycle arrest in mouse RAW264.7 cells assessed as cell accumulation at G2/M phase at 0.25 to 0.75 IC50 concentration after 72 hrs by propidium iodide staining based flow cytometric analysis relative to control. The format is functional. Also on record: scale not given: the % may be the effect or the level left.
The test system of assay [9] is B16-F10. Nature of the assay: Induction apoptosis in mouse B16-F10 cells assessed as necrotic cells at IC50 concentration after 48 hrs by AnnexinV/propidium iodide staining based flow cytometric analysis (reference value: 8.2%). The assay is classed as functional.
The subject of assay [10] is B16-F10. Nature of the assay: Induction apoptosis in mouse B16-F10 cells assessed as viable cells at IC80 concentration after 48 hrs by AnnexinV/propidium iodide staining based flow cytometric analysis (reference value: 86.9%). The format is functional.
The subject of assay [11] is B16-F10. Nature of the assay: Induction of cell cycle arrest in mouse B16-F10 cells assessed as cells accumulation at G2/M phase at IC80 concentration after 72 hrs by propidium iodide staining based flow cytometric analysis (reference value: 3.16%). The format is functional.
Assay [12] relates to B16-F10. Nature of the assay: Induction apoptosis in mouse B16-F10 cells assessed as necrotic cells at IC50 concentration after 72 hrs by AnnexinV/propidium iodide staining based flow cytometric analysis (reference value: 9.9%). The assay is classed as functional.
The nature of assay [13]: Inhibition of LPS-induced cell cycle arrest in mouse RAW264.7 cells assessed as cell accumulation at G0/G1 phase at 0.25 to 0.75 IC50 concentration after 72 hrs by propidium iodide staining based flow cytometric analysis relative to control. The format is functional. Further details: scale not given: the % may be the effect or the level left.
Assay [14] has as its system RAW264.7. Nature of the assay: Anti-inflammatory activity against mouse RAW264.7 cells assessed as inhibition of LPS-induced NO production after 24 hrs by griess reagent assay. The assay is classed as functional, cell-based. Particulars: RAW264.7, 24 h.
For assay [15], the system named is B16-F10. Nature of the assay: Induction of cell cycle arrest in mouse B16-F10 cells assessed as cells accumulation at S phase at IC50 concentration after 72 hrs by propidium iodide staining based flow cytometric analysis (reference value: 39.21%). The format is functional.
Assay [16] deals with B16-F10. The assay is described as follows: Induction apoptosis in mouse B16-F10 cells assessed as early apoptotic cells at IC50 concentration after 72 hrs by AnnexinV/propidium iodide staining based flow cytometric analysis (reference value: 0.1%). The format is functional.
A further assay concerns HepG2. The assay is described as follows: Antiproliferative activity against human HepG2 cells assessed as reduction in cell viability after 72 hrs by MTT assay. The assay is classed as functional, cell-based.
Assay [17] concerns B16-F10. The assay is described as follows: Induction apoptosis in mouse B16-F10 cells assessed as viable cells at IC50 concentration after 48 hrs by AnnexinV/propidium iodide staining based flow cytometric analysis (reference value: 86.9%). The assay is classed as functional.
Assay [18] deals with RAW264.7. The assay is described as follows: Anti-inflammatory activity against mouse RAW264.7 cells assessed as inhibition of LPS-induced NO production after 48 hrs by griess reagent assay. The assay is classed as functional, cell-based. To be noted: RAW264.7, 48 h.
Another assay has as its system Plasmodium falciparum. The assay is described as follows: Antimalarial activity against Plasmodium falciparum FCR-3/A2 erythrocytic stage infected in human erythrocytes assessed as reduction in parasite growth after 48 hrs by Giemsa staining based assay. The format is functional, organism-based. Particulars: FCR-3/A2, Erythrocyte.
The test system of the next assay is HT-29. Nature of the assay: Antiproliferative activity against human HT-29 cells assessed as reduction in cell viability after 72 hrs by MTT assay. The assay is classed as functional, cell-based. To be noted: HT-29, 72 h. On the technique in general: Tetrazolium dyes change colour on reduction, which living cells bring about.

In the case of `COC(=O)[C@]1(C)CCC[C@]2(C)c3cc4c(c(C)c3CC[C@@H]12)CC(=O)O4`, the inhibition result with RAW264.7 [1] is “Active”.
For the compound `COC(=O)[C@]1(C)CCC[C@]2(C)c3cc(O)c(C=O)c(C)c3CC[C@@H]12`, the Activity entry is “Dde” with B16-F10 [2]; 57.9% with B16-F10 [4]; 2.2% in the assay with B16-F10 [5]; 69% in assay [6]; 0.18% in the assay on B16-F10 [7]; 0.3% in assay [8]. Moreover, the Activity is reported as 2.8% in the assay on B16-F10 [9]; 64.9% with B16-F10 [10]; 0% with B16-F10 [11]; 0.9% in the assay with B16-F10 [12]; 68% in assay [13]. The inhibition entry in the assay on RAW264.7 [3] is “Dde”. The inhibition entry in the assay on RAW264.7 [1] was “Active”.
The IC50 is the midpoint of a concentration-inhibition curve. With `CC(=O)O[C@H]1[C@@H]2OC(=O)[C@@H]3c4ccoc4C[C@@H]([C@@H]23)[C@@]2(C)[C@@H](O)CCC(C)(C)[C@]12O`, the IC50 with RAW264.7 [14] is 25.4 µM.
What is called IC80 is the point of the concentration-response curve where the effect stands at 80%. For `COC(=O)[C@]1(C)CCC[C@@]2(C)[C@H]1CC=C1C(C)=C(C(C)C)C(=O)C[C@@H]12`, the Activity result in the assay on B16-F10 [2] is “Dde”; with B16-F10 [15], 38.83%; in the assay with B16-F10 [16], 0.1%; with B16-F10 [4], 47.5%; in the assay with B16-F10 [5], 2.8%; in the assay on B16-F10 [7], 1.12%. Further, the Activity in assay [8] is 0.3%; in the assay on B16-F10 [9], 2.7%; with B16-F10 [11], 1.22%; in the assay with B16-F10 [12] it was 3.8%; with B16-F10 [17], 84.1%; in [13], 68%. The inhibition entry with RAW264.7 [3] was “Dde”. Besides, the inhibition entry in the assay on RAW264.7 [1] is “Active”. Further, the IC80 with HepG2 is 72.4 µM.
For the compound `COC(=O)[C@]1(C)CCC[C@]2(C)c3cc(O)c(CO)c(C)c3CC[C@@H]12`, the inhibition result with RAW264.7 [1] was “Active”.
For `CC(=O)O[C@H]1CCC(C)(C)[C@]2(O)[C@@H](OC(C)=O)[C@@H]3OC(=O)[C@@H]4c5ccoc5C[C@@H]([C@@H]34)[C@@]12C` [CAESALPININ D], in the assay with RAW264.7 [14], the IC50 was found to be 25.4 µM.
Take `C[C@H]1c2ccoc2C[C@H]2[C@H]1[C@H]1O[C@H]1[C@@]1(O)C(C)(C)[C@@H](OC(=O)c3ccccc3)CC[C@]21C`: in the assay with RAW264.7 [18], the IC50 stood at 2.9 µM.
On to `CC(=O)O[C@H]1CC(C)(C)[C@]2(O)CCc3c(cc(O)c(C=O)c3C)[C@@]2(C)[C@H]1OC(C)=O` [NORCAESALPININ C], for which, in the assay with Plasmodium falciparum, the IC50 is 5 µM.
For the compound `COC(=O)[C@]1(C)CCC[C@]2(C)c3cc(O)c(C(C)C)c(C)c3CC[C@@H]12`, the inhibition result with RAW264.7 [1] is “Active”. Moreover, the IC50 with HT-29 came to 222 µM.
